Patent US20080090900A1, “ANTIBIOTIC BUSHRIN” (University of Karachi, priority 2006, published 2008)
≈ marks a conversion by molar mass, not a printed value. Entries after “also recorded” stand apart in the source; their conditions may differ. Where two headings read alike, the source gives them in different places.

What was measured:
[1] = system: Staphylococcus epidermidis; assay type: cell-based
[2] = system: Salmonella typhi; assay: disc diffusion technique; assay type: cell-based
[3] = system: Proteus mirabilis; assay type: cell-based
[4] = system: Bacillus subtilis; assay: disc diffusion technique; assay type: cell-based
[5] = Heat stability test (antibacterial activity by disk diffusion after heating); assay type: physicochemical
Description: […] After the treatment, the liquid in each tube was evaporated completely and Compound 1 was re-dissolved in methanol to give an appropriate concentration. Then antibacterial activity was evaluated in triplicate by the disk diffusion method.

[6] = system: Shewanella putrifacians; assay: disc diffusion technique; assay type: cell-based; details: 150 μg disc, read-out: Sensitivity (width of inhibition zone)
[7] = system: Streptococcus group G; assay: disc diffusion technique; assay type: cell-based; details: 150 μg disc
[8] = system: Clostridium perfringens; assay type: cell-based
[9] = system: Candida albicans; assay type: cell-based; details: MIC determination
[10] = system: Enterococcus faecalis; assay: disc diffusion technique; assay type: cell-based; details: 150 μg disc, read-out: Sensitivity (width of inhibition zone)
[11] = system: Bacillus steriothermophilus; assay type: cell-based
[12] = system: MSSA methicillin sensitive staphylococcus aureus; assay: disc diffusion technique; assay type: cell-based
[13] = system: Hafnia alvei; assay type: cell-based
[14] = system: Vibrio cholera; assay: disc diffusion technique; assay type: cell-based
[15] = system: Enterococcus faecium; assay: disc diffusion technique; assay type: cell-based; details: 150 μg disc, read-out: Sensitivity (width of inhibition zone)
[16] = system: Escherichia coli; assay: disc diffusion technique; assay type: cell-based; details: 150 μg disc, read-out: Sensitivity (width of inhibition zone)
[17] = system: Shewanella putrifacians; assay type: cell-based
[18] = system: Gram-positive bacteria; assay type: cell-based
Description: (§1) The minimum inhibitory concentration (MIC) of Compound 1 was determined by the standard microdilution method described in the national committee for clinical laboratory standards (National Committee for Clinical Laboratory Standards, 1997. Method for dilution antimicrobial susceptibility test for bacteria, that grow aerobically, 4th ed., p, 1-29. National Committee for Clinical Laboratory Standards) using Muller Hinton broth medium (Oxoid) incubated at 37° C. for 24 h. […] This substance was slightly active against Streptococcus sp for which the MIC was 200 μg/ml.

[19] = system: Gram negative bacteria; assay type: cell-based
Description: as §1

[20] = system: Serratia marcescens; assay type: cell-based
[21] = system: Enterobacter faecalis; assay: disc diffusion technique; assay type: cell-based
[22] = system: Staphylococcus aureus (ATCC33591); assay: Time kill experiment; details: for course of viable bacterial cell count: at two and four times the MIC
[23] = system: Enterobacter faecalis; assay type: cell-based
[24] = system: Staphylococcus epidermidis; assay: disc diffusion technique; assay type: cell-based
[25] = system: Hafnia alvei; assay: disc diffusion technique; assay type: cell-based
[26] = system: Escherichia coli; assay type: cell-based
[27] = system: Proteus morgani; assay type: cell-based
[28] = system: Klebsiella aerogenes; assay: disc diffusion technique; assay type: cell-based; details: 150 μg disc
[29] = system: Clostridium perfringens; assay: microbe, parasite or virus in culture; assay type: cell-based
[30] = system: Vibrio cholera; assay type: cell-based; details: Vibrio cholerae
[31] = system: Streptococcus sp; assay type: cell-based
[32] = system: Staphylococcus aureus; assay type: cell-based
[33] = system: Vibrio harveyi; assay: disc diffusion technique; assay type: cell-based; details: 150 μg disc, read-out: Sensitivity (width of inhibition zone)
[34] = system: Proteus mirabilis; assay: disc diffusion technique; assay type: cell-based
[35] = system: Clostridium sporogenes; assay: microbe, parasite or virus in culture; assay type: cell-based; details: Clostridium sporogenes, read-out: Sensitivity (width of inhibition zone)
[36] = system: Enterococcus faecium; assay type: cell-based
[37] = system: Proteus morgani; assay: disc diffusion technique; assay type: cell-based; details: 150 μg disc, read-out: Sensitivity (width of inhibition zone)
[38] = system: Vibrio harveyi; assay type: cell-based
[39] = system: Bacillus cereus; assay type: cell-based
[40] = system: Bacillus steriothermophilus; assay: disc diffusion technique; assay type: cell-based; details: 150 μg disc, read-out: Sensitivity (width of inhibition zone)
[41] = system: Candida albicans; assay: disc diffusion technique; assay type: cell-based
[42] = system: Bacillus subtilis; assay type: cell-based
[43] = system: Bacillus cereus; assay: disc diffusion technique; assay type: cell-based; details: 150 μg disc, read-out: Sensitivity (width of inhibition zone)
[44] = system: Salmonella typhi; assay type: cell-based; details: Salmonella enterica
[45] = system: Bacillus subtilis; assay: Phase contrast microscopy; assay type: cell-based; details: 50 μl/ml, immediately after treatment
Description: (§2) An exponential phase culture (A600, 0.05) of Bacillus subtilis and Staphylococcus aureus grown in Luria broth was treated with 50 μl/ml of Compound 1 for Bacillus subtilis and 60 μl/ml for Staphylococcus aureus and slides were immediately made in 1% agarose using 4 μl of Compound 1 treated cultures, time lapse images were obtained under phase contrast microscope, particular care was taken to minimize the sample exposure to UV light, image grabbing were performed essentially as described by Edwards and Errrington. (Edwards, D. H., and Errington, J.(1997). The Bacillus subtilis […] protein targets to the division septum and control the site specificity of cell division. Mol Microbiol 24:905-915).

[46] = system: Staphylococcus aureus; assay: Phase contrast microscopy; assay type: cell-based; details: 60 μl/ml, immediately after treatment
Description: as §2

[47] = system: Enterococcus faecalis; assay type: cell-based
[48] = system: MSSA methicillin sensitive staphylococcus aureus; assay type: cell-based
[49] = system: Bacillus subtilis; assay: Complete killing of Bacillus subtilis; assay type: cell-based
[50] = system: Serratia marcescens; assay: disc diffusion technique; assay type: cell-based
[51] = system: Clostridium sporogenes; assay: microbe, parasite or virus in culture; assay type: cell-based
[52] = system: Staphylococcus aureus; assay: Bacteriolytic assay; assay type: cell-based; details: 600 nm, 30° C., 0-360 min, various concentrations
Description: The seed culture of Staphylococcus aureus in Luria broth (LB) were washed twice with sterile distilled water containing 0.9% sodium chloride and the absorbance was adjusted to 0.05 at 600 nm. The bacterial cell suspension was divided into aliquots of 5 ml each placed in sterile test tube and exposed to Compound 1 at various concentration, untreated bacterial suspension were used as the negative control.

[53] = system: Staphylococcus aureus; assay: Spheroplasting activities; assay type: cell-based; details: for formation of osmotically fragile spheroplasts: Luria broth with 0.3M sucrose, 90 minutes, phase contrast microscope
Description: Aliquots (100 μl) of an exponential phase culture(A600,0.05) grown in Luria broth supplemented with 0.3M concentration of sucrose were dispensed into test tubes containing different concentration of Compound 1 and 1 μl/ml ampicillin as positive control. The tubes were then incubated at 30° C. with shaking at 140 rpm. After 90 minutes, the cells were examined by phase contrast microscope for any morphological changes or for the presence of spheroplast. To confirm the osmotic fragility of the spheroplast the lytic effect of 2-3 μl of water added under the cover slip was tested.

[54] = 150 μg disc, read-out: Sensitivity (width of inhibition zone)

## Cc1cc(O)c2c(c1)C=CC(C)(c1ccoc1)C2 (centres unmarked) [Compound 1, 7-(3-furyl)-3,7-dimethyl-7,8-dihydro-1-naphthalenol]
[1]
  MIC: 50 to 100 µg/mL
[1]; Staphylococcus epidermidis, read-out: MIC
  MIC: 50 µg/mL (≈ 208 µM)
[2]; Salmonella enterica, TYPHI, read-out: Sensitivity (width of inhibition zone)
  zone of inhibition at 150 µg/disc: 15 to 20 mm
[2]; disc diffusion, Salmonella typhi
  antibacterial activity: active; also recorded: activity
[3]
  MIC: 75 µg/mL (≈ 312 µM)
[3]; Proteus mirabilis, read-out: MIC
  MIC: 75 µg/mL (≈ 312 µM)
[4]
  antibacterial activity: active; also recorded: activity
[4]; [54]
  zone of inhibition at 150 µg/disc: 18 to 30 mm
[5]; at 200° C.
  antibacterial activity after heat treatment: completely lost
[5]; treatment at 120° C.
  antibacterial activity after heat treatment: significantly reduced
[6]
  zone of inhibition at 150 µg/disc: 10 to 15 mm
[7]
  Sensitivity (width of inhibition zone): −
[8]
  MIC: 100 µg/mL (≈ 416 µM)
[9]
  activity against Candida albicans: not found active
[10]
  zone of inhibition at 150 µg/disc: 18 to 30 mm
[11]
  MIC: 50 to 60 µg/mL
[11]; Bacillus steriothermophilus, read-out: MIC
  MIC: 50 µg/mL (≈ 208 µM)
[12]; Staphylococcus aureus MSSA
  antibacterial activity: active; also recorded: activity
[12]; Staphylococcus aureus, 150 μg disc, MSSA, read-out: Sensitivity (width of inhibition zone)
  zone of inhibition at 150 µg/disc: 18 to 30 mm
[13]
  MIC: 100 µg/mL (≈ 416 µM)
[13]; Hafnia alvei, read-out: MIC
  MIC: 100 µg/mL (≈ 416 µM)
[14]
  antibacterial activity: active; also recorded: activity
[15]
  zone of inhibition at 150 µg/disc: 18 to 30 mm
[16]
  zone of inhibition at 150 µg/disc: 10 to 15 mm
[17]
  MIC: 75 µg/mL (≈ 312 µM)
[18]
  MIC: 50 to 75 µg/mL (≈ 208 to 312 µM)
[19]
  MIC: 75 to 125 µg/mL (≈ 312 to 520 µM)
[20]
  MIC: 60 µg/mL (≈ 250 µM)
[20]; Serratia marcescens, read-out: MIC
  MIC: 60 µg/mL (≈ 250 µM)
[21]
  antibacterial activity: active; also recorded: activity
[22]; Staphylococcus aureus
  concentration able to kill completely: 125 µg/mL
[22]; at MIC 50 μg/ml
  exposure time after which number of viable bacterial cells decreased: 8 h
[22]
  course of viable bacterial cell count: decreased drastically
[22]; four times the MIC
  time after which viable count decreased drastically: 1 h
[22]; same concentration and length of exposure, vs vancomycin, nisin, tetracycline, ampicillin
  killing rate compared with test antibiotics: much higher
[22]; time kill, Staphylococcus aureus
  bactericidal activity: rapidly bactericidal
[22]; two times the MIC
  time after which viable count decreased drastically: 2 h
[23]
  MIC: 100 µg/mL (≈ 416 µM)
[24]; 150 μg disc, Staphylococcus epidermidis, read-out: Sensitivity (width of inhibition zone)
  zone of inhibition at 150 µg/disc: 18 to 30 mm
[24]; Staphylococcus epidermids
  antibacterial activity: active; also recorded: activity
[25]
  antibacterial activity: active; also recorded: activity
[25]; [54]
  zone of inhibition at 150 µg/disc: 15 to 20 mm
[26]
  MIC: 75 µg/mL (≈ 312 µM)
[27]
  MIC: 75 µg/mL (≈ 312 µM)
[28]
  Sensitivity (width of inhibition zone): −
[29]; Clostridium perfringens, read-out: Sensitivity (width of inhibition zone)
  zone of inhibition at 150 µg/disc: 10 to 15 mm
[29]; disc diffusion, anaerobic Clostridium perfringens
  antibacterial activity: less active
[30]
  MIC: 60 µg/mL (≈ 250 µM)
[31]
  MIC: 200 µg/mL (≈ 832 µM)
[32]; Staphylococcus aureus
  MIC: 50 to 100 µg/mL (≈ 208 to 416 µM)
[32]; Staphylococcus aureus (ATCC33591), stated in time kill experiment, read-out: MIC
  MIC: 50 µg/mL (≈ 208 µM)
[33]
  zone of inhibition at 150 µg/disc: 18 to 30 mm
[34]
  antibacterial activity: active; also recorded: activity
[34]; [54]
  zone of inhibition at 150 µg/disc: 18 to 30 mm
[35]
  zone of inhibition at 150 µg/disc: 10 to 15 mm
[36]
  MIC: 50 µg/mL (≈ 208 µM)
[37]
  zone of inhibition at 150 µg/disc: 18 to 30 mm
[38]
  MIC: 75 µg/mL (≈ 312 µM)
[39]
  MIC: 60 µg/mL (≈ 250 µM)
[40]
  zone of inhibition at 150 µg/disc: 18 to 30 mm
[41]
  activity: not active
[41]; 150 μg disc
  Sensitivity (width of inhibition zone): −
[42]
  MIC: 50 to 60 µg/mL
[42]; Bacillus subtilis, read-out: MIC
  MIC: 50 µg/mL (≈ 208 µM)
[43]
  zone of inhibition at 150 µg/disc: 18 to 30 mm
[44]
  MIC: 75 µg/mL (≈ 312 µM)
[45]
  morphological change of treated cells (time lapse images): uniform and consistent decrease in size of cells
[46]
  morphological change of treated cells (time lapse images): complete lyses
[47]
  MIC: 50 µg/mL (≈ 208 µM)
[48]
  MIC: 60 µg/mL (≈ 250 µM)
[49]
  concentration that completely killed: 100 µg/mL
[50]; 150 μg disc, Serratia marcescens, read-out: Sensitivity (width of inhibition zone)
  zone of inhibition at 150 µg/disc: 15 to 20 mm
[50]; Serratia marcesens
  antibacterial activity: active; also recorded: activity
[51]
  MIC: 125 µg/mL (≈ 520 µM)
[52]
  absorbance of Staphylococcus aureus cell suspension (lysis): Reduction of the absorbance
[53]
  formation of osmotically fragile spheroplasts: did not induce
[53]; Staphylococcus aureus
  killing of cells in osmotically protected medium: killed

## CC1(C)S[C@@H]2[C@H](NC(=O)[C@H](N)c3ccccc3)C(=O)N2[C@H]1C(=O)O [ampicillin, reference compound]
[22]
  course of viable bacterial cell count: decreased gradually
[53]
  formation of osmotically fragile spheroplasts: observed

## CN[C@H](CC(C)C)C(=O)N[C@H]1C(=O)N[C@@H](CC(N)=O)C(=O)N[C@H]2C(=O)N[C@H]3C(=O)N[C@H](C(=O)N[C@H](C(=O)O)c4cc(O)cc(O)c4-c4cc3ccc4O)[C@H](O)c3ccc(c(Cl)c3)Oc3cc2cc(c3O[C@@H]2O[C@H](CO)[C@@H](O)[C@H](O)[C@H]2O[C@H]2C[C@](C)(N)[C@H](O)[C@H](C)O2)Oc2ccc(cc2Cl)[C@H]1O [vancomycin, reference compound]
[22]
  course of viable bacterial cell count: decreased gradually
